Columns and labels:
HaCaT cells = assay: Calcium imaging in HaCaT cells; type: cell-based, human; conditions: for effect of blocker on Sandalore-induced calcium signals: HaCaT cells, EGTA 10 mM calcium-free, SQ-22536 100 μM, MDL-12330A 40 μM, U-73122 10 μM, L-cis-diltiazem 150 μM; for increase of the first amplitude induced by Sandalore after preincubation with gap junction blocker: HaCaT, 1-octanol 500 μM or carbenoxolone 10 μM, Sandalore 500 μM
Description: In the fourth application, saturation occurred at approx. 500 μM (FIG. 9d). The ECR50R value was 430 μM of Sandalore® in the first application and 112 μM of Sandalore® in the fourth application.
The Sandalore®-induced signal cascade in HaCaT cells and primary keratinocytes was pharmacologically characterized using the calcium imaging technique and specific blockers of signal cascade proteins. An investigation was first conducted in order to determine whether the calcium signals are caused by calcium inflow from the extracellular space. For this purpose, a calcium-free extracellular solution was used with a calcium chelator (EGTA) added. […] In order to investigate the role of adenylyl cyclase, the specific blockers SQ-22536 and MDL-12330A were used. […] The efficacy of the blockers was tested in this case with histamine, which activated the PLC signalling pathway (FIG. 11c). […]
In order to characterize the antagonists, HaCaT cells were first repeatedly stimulated with Sandalore® (1 mM). On the third application, costimulation (1:1) with Sandalore® and one of the antagonists took place. […] Based on this, dose-dependent characterization of inhibition was to be carried out. For this purpose, Sandalore® and the antagonists were costimulated with different concentrations.
(§1) Effect of the OR2AT4 ligand Sandalore® on intracellular calcium concentration of cultivated keratinocytes. […] 100 μM of ATP was used at the end of each measurement as a positive control stimulus. Right: Quantitative evaluation of calcium signals in 4-time application of Sandalore® (500 μM). Shown are the mean values of the individual applications including standard error. Mann-Whitney U test. *: p<0.05. C) and D): dose-dependent activation of HaCaT cells in calcium imaging experiments. Shown are the mean amplitudes including standard error at various concentrations in the first (C) and fourth (D) Sandalore® application. Number of cells measured: 0.0125 mM (39), 0.025 mM (30), 0.1 mM (46), 0.5 mM (34), 1 mM (63), 2 mM (41), 10 mM (36).
(§2) A) Representative calcium imaging traces of HaCaT cells (left) and primary keratinocytes (right) incubated with the gap junction blocker 1-octanol (500 μM) and then repeatedly stimulated with Sandalore® (500 μM, horizontal bars) (blue trace). […] 100 μM of ATP was used at the end of each measurement as a positive control stimulus. Quantitative evaluation of HaCaT cells (B) and primary keratinocytes (C) incubated with the gap junction blockers 1-octanol (500 μM) or carbenoxolone (10 μM) and then repeatedly stimulated with Sandalore® (500 μM) or Lyral (1 mM) in calcium imaging experiments. Shown are the mean values of the individual applications including standard error relative to the control measurements (Sandalore® application without blocker). Mann-Whitney U test. Number of cells measured: Sandalore®+1-octanol (HaCaT (110), keratinocytes (26)); Sandalore®+carbenoxolone: HaCaT (74); Lyral+carbenoxolone: HaCaT (43). ***: p<0.001.
Pharmacological characterization of Sandalore®-induced signal cascade in human keratinocytes. A)-D). Shown are representative calcium imaging traces of primary keratinocytes in the presence of a blocker (blue). The horizontal bars correspond to the application times. 100 μM of ATP was used at the end of each measurement as a positive control stimulus. A) Measurement with calcium-free extracellular solution (+10 mM EGTA). B) Measurement with the adenylyl cyclase blocker SQ-22536 (100 μM). C) Use of the phospholipase-C blocker U-73122 (10 μM). 100 μM of histamine was taken as a positive control. D) Measurement with the CNG channel blocker L-cis-diltiazem (150 μM). E) Overview of pharmacological measurement of HaCaT cells and primary keratinocytes (Kera). The mean amplitudes relative to the control measurements (dashed line) are indicated. MDL-12330A (40 μM). […]

primary keratinocytes = assay: Calcium imaging in primary keratinocytes; type: cell-based, human; conditions: for effect of blocker on Sandalore-induced calcium signals: primary keratinocytes, EGTA 10 mM calcium-free, SQ-22536 100 μM, MDL-12330A 40 μM, U-73122 10 μM, L-cis-diltiazem 150 μM
Source text: The Sandalore®-induced signal cascade in HaCaT cells and primary keratinocytes was pharmacologically characterized using the calcium imaging technique and specific blockers of signal cascade proteins. An investigation was first conducted in order to determine whether the calcium signals are caused by calcium inflow from the extracellular space. For this purpose, a calcium-free extracellular solution was used with a calcium chelator (EGTA) added. […] In order to investigate the role of adenylyl cyclase, the specific blockers SQ-22536 and MDL-12330A were used. […] The efficacy of the blockers was tested in this case with histamine, which activated the PLC signalling pathway (FIG. 11c).
as §1, §2
Pharmacological characterization of Sandalore®-induced signal cascade in human keratinocytes. A)-D). Shown are representative calcium imaging traces of primary keratinocytes in the presence of a blocker (blue). The horizontal bars correspond to the application times. 100 μM of ATP was used at the end of each measurement as a positive control stimulus. A) Measurement with calcium-free extracellular solution (+10 mM EGTA). B) Measurement with the adenylyl cyclase blocker SQ-22536 (100 μM). C) Use of the phospholipase-C blocker U-73122 (10 μM). 100 μM of histamine was taken as a positive control. D) Measurement with the CNG channel blocker L-cis-diltiazem (150 μM). E) Overview of pharmacological measurement of HaCaT cells and primary keratinocytes (Kera). The mean amplitudes relative to the control measurements (dashed line) are indicated. MDL-12330A (40 μM). EGTA: calcium-free Ringer (HaCaT n=46, Kera n=52), SQ: SQ-22536 (HaCaT n=60, Kera n=26), MDL: MDL-12330A (HaCaT n=69, Kera n=24), U-73122 (HaCaT n=41, Kera n=25), L-cis-D.: L-cis-diltiazem (HaCaT n=41, Kera n=25). Mann-Whitney U test. ***: p<0.001. F) Determination of the cAMP contents of HaCaT cells after stimulation with Sandalore® by means of cAMP-Glo™ assays. The dots show the mean cAMP content including standard error after 10-minute Sandalore® stimulation (1 μM-10,000 μM). Significance was determined between HaCaT cells stimulated with Sandalore® and stimulated with an equivalent volume of DMSO (0.2%). Kruskal-Wallis Test with multiple comparison; n=3 experiments. *: p<0.05.

[1] = target: T1, recombinantly expressed OR2AT4 (Homo sapiens, UniProt A6NND4); assay: Calcium imaging of transiently OR2AT4-transfected Hana3A cells; type: cell-based; conditions: for response rate of the Hana3A cells relative to the Ringer control: 1 mM odorant, 20 s stimulation, OR2AT4-transfected Hana3A cells
T1 construct: expressed in transfected cells; host or cells: Hana3A cells, transient transfection with pcDNA3-OR2AT4 by the calcium phosphate method
T1 sequence (A6NND4 1-320): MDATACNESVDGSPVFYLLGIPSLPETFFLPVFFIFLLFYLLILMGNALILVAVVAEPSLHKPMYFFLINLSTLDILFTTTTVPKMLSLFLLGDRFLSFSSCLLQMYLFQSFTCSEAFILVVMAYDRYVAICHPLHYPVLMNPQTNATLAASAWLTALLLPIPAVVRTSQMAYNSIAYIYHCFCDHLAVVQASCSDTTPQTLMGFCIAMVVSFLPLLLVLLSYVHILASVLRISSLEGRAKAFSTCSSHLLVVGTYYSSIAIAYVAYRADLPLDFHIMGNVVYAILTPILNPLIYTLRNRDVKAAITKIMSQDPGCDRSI
Description: Hana3A cells expressing stable endogenous olfactory transduction factors, which specifically target the incorporation of ORs into the cell membrane and thus improve activation capacity, were used as a heterologous expression system. Moreover, the 20 first N-terminal amino acids of rhodopsins (Rho-tag) were added before the N-terminus of the coding sequence of the OR, also in order to support heterologous expression.
A method established at the Department of Cell Physiology of Ruhr University Bochum for deorphanization studies is calcium imaging, in which activation of an OR by an odorant is visualized by a change in the intracellular calcium concentration of transfected cells using a fluorescent dye [cf. Wetzel et al. in: J. Neurosci. 19, pp. 7426-7433 (1999); Spehr et al. in: Science 299, pp. 2054-2058 (2003); Neuhaus et al. in: J. Biol. Chem. 284, pp. 16218-16225 (2009)]. In this method, the Hana3A cells are briefly (20 s) stimulated with an odorant and selected for odorant screenings of high concentrations (up to 1 mM) in order to confirm activation of ORs weakly expressed in Hana3A cells.
The activation of OR2AT4 by Sandalore® was first investigated by the calcium imaging method.
Odorants can not only activate a receptor, but can also act as antagonists to an OR.
(§3) Determination of receptive field of recombinantly expressed OR2AT4. […] As a control, untransfected Hana3A cells were simulated with Sandalore®. 100 μM of ATP was used at the end of each measurement as a positive control stimulus. […] The mean response rate including standard error of the cells is shown relative to the Ringer control. […] Isobornyl.: isobornyl cyclohexanol; S. öl: sandalwood oil. Kruskal-Wallis test with multiple comparison. *: p<0.05. […] Significance was determined between Hana3A cells transfected with OR2AT4-pcDNA3 and pcDNA3 without an insert. The dots show mean normalized luciferase-activity including standard error. Mann-Whitney U test; n=3 experiments. *: p<0.05; **: p<0.01; ***: p<0.001.
Antagonists of recombinantly expressed OR2AT4. […] 100 μM of ATP was used at the end of each measurement as a positive control stimulus. […] The mean response rate including standard error of the cells is shown relative to the Ringer control. Number of measurements: Ringer (23), Sandalore® (22), Sandalore®+dimetol (11), dimetol (11), Phenirat (14), Sandalore®+Phenirat (22), Oxyphenylon (12), and Sandalore®+Oxyphenylon (20). S: Sandalore®. Kruskal-Wallis test with multiple comparison. *: p<0.05.

[2] = target: T1, recombinantly expressed OR2AT4; assay: CRE dual luciferase assay in OR2AT4-transfected Hana3A cells; type: cell-based; conditions: up to the highest useable concentrations 10-25 μM
Source text: In order to verify calcium imaging results and investigate dose-dependent activation of OR2AT4, a further method of deorphanization based on a dual luciferase system was used. In this method, in addition to the OR, two luciferases were introduced into the Hana3A cells. When the expressed OR is activated by an odorant and cAMP is formed in the further course of the signal cascade, this initiates expression of firefly luciferase via CRE (cAMP response elements). The second luciferase, Renilla luciferase, serves as a control for transfection and vitality of the cells. By calculating the two luciferase values, the activation capacity of an OR by an odorant can be determined. In the CRE luciferase assay, the odorant remains on the cells for hours in order to ensure that the luciferase is expressed. Because of the longer incubation time of the odorants and the possibility of activating more receptors in a 96-well format, this method is more sensitive than calcium imaging and is well-suited for establishing dose-response relationships.
For Brahmanol, however, a higher concentration (≥75 μM) was required than for Sandalore® (≥25 μM) in order to produce a significant effect at the receptor (FIG. 3c).
as §3

With COc1ccc([C@H]2Sc3ccccc3N(CCN(C)C)C(=O)[C@H]2OC(C)=O)cc1 (relative stereo) [L-cis-diltiazem] the “effect of blocker on Sandalore-induced calcium signals” value (HaCaT cells) was “significantly reduced” and the “effect of blocker on Sandalore-induced calcium signals” value (primary keratinocytes) was “significantly reduced”.

In the case of CC(C)(O)CCCC1=CCC(C=O)CC1 (stereo not drawn) [Lyral], the “odorant-induced calcium signals in skin cells” value (HaCaT cells; Lyral 1 mM) is reported as “induces calcium signals in skin cells”.

With CC1=CCC(/C=C\C(C)C(C)O)C1(C)C (stereo not drawn) [Ebanol] the “response rate of the Hana3A cells relative to the Ringer control” value [1] was “only Brahmanol showed an increased response rate”.

For CC1(C)[C@@H](OC(=O)CCC(=O)O)CC[C@]2(C)[C@H]3C(=O)C=C4[C@@H]5C[C@@](C)(C(=O)O)CC[C@]5(C)CC[C@@]4(C)[C@]3(C)CC[C@@H]12 [carbenoxolone], the “increase of the first amplitude induced by Sandalore after preincubation with gap junction blocker” value (from here on “increase of the first amplitude induced”) (HaCaT cells) was “the same result” and the “effect on the Lyral-induced response pattern” value (HaCaT cells; pre-incubation with blocker 10 μM, Lyral 1 mM) was “No effect”.

CC1(CO)CC1CC1CC2CC2(C)C1(C)C (stereo not drawn) [Javanol] was tested, and the “activation of OR2AT4 in the luciferase assay” value [2] was “no increased activation of OR2AT4” and the “response rate of the Hana3A cells relative to the Ringer control” value [1] was “only Brahmanol showed an increased response rate”.

For CCCCCCCCO [1-octanol], the “increase of the first amplitude induced” value (HaCaT cells) was “approx. 400%” and the “increase of the first amplitude induced” value (primary keratinocytes; keratinocytes, 1-octanol 500 μM, Sandalore 500 μM) was about 1000%.

In the case of O=C(O)CN(CCOCCOCCN(CC(=O)O)CC(=O)O)CC(=O)O [EGTA], the “effect of blocker on Sandalore-induced calcium signals” value (HaCaT cells) is reported as “significantly reduced” and the “effect of blocker on Sandalore-induced calcium signals” value (primary keratinocytes) is reported as “significantly reduced”.

In the case of COc1ccc2c(c1)CC[C@@H]1[C@@H]2CC[C@]2(C)[C@@H](NCCCCCCN3C(=O)C=CC3=O)CC[C@@H]12 [U-73122], the “effect of blocker on Sandalore-induced calcium signals” value (HaCaT cells) is reported as “no effect” and the “effect of blocker on Sandalore-induced calcium signals” value (primary keratinocytes) is reported as “no effect”.

In the case of Cl.c1ccc(C2CCCC2NC2=NCCCCCCCCCCC2)cc1 (stereo not drawn) [MDL-12330A], the “effect of blocker on Sandalore-induced calcium signals” value (HaCaT cells) is reported as “significant reduction” and the “effect of blocker on Sandalore-induced calcium signals” value (primary keratinocytes) is reported as “significant reduction”.

In the case of Nc1ncnc2c1ncn2C1CCCO1 (stereo not drawn) [SQ-22536], the “effect of blocker on Sandalore-induced calcium signals” value (HaCaT cells) is reported as “significant reduction” and the “effect of blocker on Sandalore-induced calcium signals” value (primary keratinocytes) is reported as “significant reduction”.

With CC(C)CCCC(C)(C)O [dimetol] the “effect on Sandalore-induced calcium signals on coapplication” value (HaCaT cells; third application, costimulation 1:1 with Sandalore 1 mM) was “only slightly reduced”, the “effect on Sandalore-induced calcium signals in coapplication” value ([1]; coapplication with Sandalore 1:1, 1 mM respectively) was “no effect” and the “effect of the odorant alone on the Hana3A cells” value ([1]; odorant alone, 1 mM) was “no effect”.
